From the NIST ThermoML archive (doi:10.1021/je034102r)

Assay: molar heat capacity at saturation pressure
Details: Small (less than 1 g) adiabatic calorimetry

CCCCn1cc[n+](C)c1.F[P-](F)(F)(F)(F)F [1-butyl-3-methylimidazolium hexafluorophosphate]
Details	molar heat capacity [J/K/mol]
5 K, Crystal	1.007
5 K, Glass	1.946
5.09 K, Glass	2.049
5.13 K, Crystal	1.065
5.36 K, Glass	2.336
5.41 K, Crystal	1.231
5.59 K, Glass	2.627
5.67 K, Crystal	1.405
5.85 K, Glass	2.997
5.97 K, Crystal	1.625
6.14 K, Glass	3.411
6.29 K, Crystal	1.927
6.47 K, Glass	3.839
6.6 K, Crystal	2.264
6.82 K, Glass	4.454
6.91 K, Crystal	2.566
7.15 K, Glass	4.943
7.23 K, Crystal	2.994
7.49 K, Glass	5.596
7.58 K, Crystal	3.435
7.84 K, Glass	6.275
7.92 K, Crystal	3.848
8.21 K, Glass	6.958
8.28 K, Crystal	4.395
8.61 K, Glass	7.772
8.66 K, Crystal	4.99
9 K, Glass	8.63
9.07 K, Crystal	5.739
9.41 K, Glass	9.587
9.49 K, Crystal	6.479
9.82 K, Glass	10.46
9.92 K, Crystal	7.352
10 K, Crystal	7.487
10 K, Glass	10.93
10.27 K, Glass	11.64
10.35 K, Crystal	8.195
10.75 K, Crystal	9.005
10.76 K, Glass	12.74
11.18 K, Crystal	10.04
11.23 K, Glass	14.01
11.74 K, Crystal	11.29
11.74 K, Glass	15.2
12.29 K, Glass	16.65
12.32 K, Crystal	12.57
12.81 K, Glass	18.03
12.92 K, Crystal	14.08
13.36 K, Glass	19.55
13.56 K, Crystal	15.72
13.99 K, Glass	21.2
14.2 K, Crystal	17.26
14.65 K, Glass	23.01
14.85 K, Crystal	19.06
15 K, Crystal	19.41
15 K, Glass	23.95
15.35 K, Glass	24.94
15.51 K, Crystal	20.76
16.07 K, Glass	26.85
16.24 K, Crystal	22.77
16.81 K, Glass	28.88
17 K, Crystal	24.84
17.63 K, Glass	31.14
17.78 K, Crystal	26.97
18.5 K, Glass	33.53
18.66 K, Crystal	29.5
19.36 K, Glass	35.93
19.54 K, Crystal	32.1
20 K, Crystal	33.34
20 K, Glass	37.71
20.17 K, Glass	38.13
20.45 K, Crystal	34.73
21.05 K, Glass	40.62
21.38 K, Crystal	37.23
22.07 K, Glass	43.51
22.32 K, Crystal	39.8
23.08 K, Glass	46.05
23.31 K, Crystal	42.57
24.15 K, Glass	49.07
24.37 K, Crystal	45.56
25 K, Crystal	47.15
25 K, Glass	51.23
25.25 K, Glass	51.82
25.51 K, Crystal	48.5
26.28 K, Glass	54.6
26.64 K, Crystal	51.23
27.38 K, Glass	57.25
27.83 K, Crystal	54.25
28.63 K, Glass	60.1
29.06 K, Crystal	57.36
29.99 K, Glass	63.37
30 K, Crystal	59.6
30 K, Glass	63.41
30.21 K, Crystal	60.16
31.43 K, Glass	66.52
31.51 K, Crystal	63.15
32.95 K, Glass	70.07
32.97 K, Crystal	66.37
34.47 K, Crystal	69.5
34.52 K, Glass	73.45
35 K, Crystal	70.66
35 K, Glass	74.31
36.07 K, Crystal	72.74
36.17 K, Glass	76.76
37.71 K, Crystal	76.12
37.88 K, Glass	79.79
39.38 K, Crystal	79.31
39.66 K, Glass	83.48
40 K, Crystal	80.48
40 K, Glass	83.89
41.07 K, Crystal	82.46
41.55 K, Glass	86.89
42.76 K, Crystal	85.47
43.54 K, Glass	90.3
44.47 K, Crystal	88.38
45 K, Crystal	89.21
45 K, Glass	92.46
45.53 K, Glass	93.29
46.22 K, Crystal	91.38
47.48 K, Glass	96.53
48 K, Crystal	93.87
49.44 K, Glass	99.69
49.81 K, Crystal	96.36
50 K, Crystal	96.95
50 K, Glass	100.6
51.38 K, Glass	102.7
51.62 K, Crystal	99.36
53.34 K, Glass	105.7
53.48 K, Crystal	101.9
55.43 K, Glass	108.8
55.49 K, Crystal	104.4
57.6 K, Glass	111.9
57.62 K, Crystal	106.9
59.71 K, Crystal	109.9
59.75 K, Glass	114.9
60 K, Crystal	110.2
60 K, Glass	115.6
61.89 K, Crystal	112.3
61.89 K, Glass	117.8
64.01 K, Glass	121.6
64.13 K, Crystal	115.1
66.11 K, Glass	123.9
66.36 K, Crystal	118.1
68.19 K, Glass	127.2
68.68 K, Crystal	120.7
70 K, Crystal	122
70 K, Glass	129.2
70.41 K, Glass	130
71.13 K, Crystal	123.1
72.69 K, Glass	132.8
73.64 K, Crystal	125.8
75.03 K, Glass	135.6
76.05 K, Crystal	128.6
77.42 K, Glass	138.4
78.39 K, Crystal	130.8
79.89 K, Glass	142.1
80 K, Crystal	132.7
80 K, Glass	141.8
80.75 K, Crystal	133.5
82.45 K, Glass	144.5
83.19 K, Crystal	136
84.93 K, Glass	147.7
85.74 K, Crystal	138.7
87.39 K, Glass	150.3
88.31 K, Crystal	141.4
89.83 K, Glass	153.7
90 K, Crystal	142.9
90 K, Glass	154.1
90.82 K, Crystal	143.8
92.25 K, Glass	157.1
93.26 K, Crystal	146.3
95.42 K, Glass	160.5
95.87 K, Crystal	149.1
97.92 K, Glass	163.5
98.65 K, Crystal	151.7
100 K, Crystal	153.2
100 K, Glass	166
100.28 K, Crystal	153.6
100.38 K, Glass	166.5
100.78 K, Glass	167.5
101.35 K, Crystal	154.9
102.77 K, Crystal	156.1
103.17 K, Glass	170
105.21 K, Crystal	158.5
105.51 K, Glass	172.9
107.6 K, Crystal	160.8
107.81 K, Glass	175.4
110 K, Crystal	163.1
110 K, Glass	177.9
110.06 K, Glass	177.9
110.13 K, Crystal	163.1
112.28 K, Glass	180.3
112.77 K, Crystal	165.8
114.54 K, Glass	183.2
115.37 K, Crystal	168.1
116.84 K, Glass	185.7
117.92 K, Crystal	170.7
119.11 K, Glass	188.2
120 K, Crystal	172.9
120 K, Glass	189.1
120.6 K, Crystal	173.4
121.35 K, Glass	190.5
123.41 K, Crystal	176.3
123.71 K, Glass	193.2
126.17 K, Crystal	178.9
126.2 K, Glass	195.8
128.66 K, Glass	198.4
128.89 K, Crystal	181.8
130 K, Crystal	182.8
130 K, Glass	200
131.16 K, Glass	201.3
131.56 K, Crystal	184.6
133.7 K, Glass	204.1
134.28 K, Crystal	187.2
136.2 K, Glass	207.1
137.03 K, Crystal	190.2
138.67 K, Glass	209.8
139.75 K, Crystal	193
140 K, Crystal	193.1
140 K, Glass	211
141.19 K, Glass	212.4
142.43 K, Crystal	195.6
143.75 K, Glass	215.3
145.07 K, Crystal	198.5
146.28 K, Glass	217.9
147.68 K, Crystal	201.1
148.93 K, Glass	220.9
150 K, Crystal	203.7
150 K, Glass	222.2
150.26 K, Crystal	204.1
151.7 K, Glass	224.2
152.8 K, Crystal	206.7
154.44 K, Glass	226.9
155.32 K, Crystal	209.6
157.14 K, Glass	230.1
157.81 K, Crystal	212.4
159.81 K, Glass	233.2
160 K, Crystal	214.6
160 K, Glass	233.6
160.34 K, Crystal	214.8
162.53 K, Glass	236.6
162.92 K, Crystal	217.8
165.29 K, Glass	239.8
165.46 K, Crystal	220.6
168.02 K, Glass	243.1
168.07 K, Crystal	223.6
170 K, Crystal	225.7
170 K, Glass	245.7
170.71 K, Crystal	226.4
170.72 K, Glass	246.4
173.34 K, Crystal	229.6
173.39 K, Glass	249.7
175.93 K, Crystal	232.7
176.04 K, Glass	253
177.26 K, Glass	254.8
178.5 K, Crystal	235.4
180 K, Crystal	237.2
180 K, Glass	258.1
180.15 K, Glass	258.7
181.04 K, Crystal	238.3
183.09 K, Glass	263.9
183.56 K, Crystal	241.2
186.06 K, Crystal	244.3
186.06 K, Glass	273
188.53 K, Crystal	247.2
188.97 K, Glass	285
190 K, Crystal	248.8
190 K, Glass	270.5
190.6 K, Glass	271.2
190.6 K, Liquid	352.9
190.98 K, Crystal	249.9
191.7 K, Glass	322.8
193.42 K, Crystal	252.8
194.24 K, Glass	351
194.81 K, Crystal	254.5
196.8 K, Liquid	355.5
197.49 K, Crystal	257.7
199.36 K, Liquid	356.4
200 K, Crystal	260.7
200 K, Liquid	356.9
200.29 K, Crystal	260.8
201.91 K, Liquid	357.9
203.07 K, Crystal	264.4
204.58 K, Liquid	359.1
205.82 K, Crystal	267.4
207.37 K, Liquid	360.1
208.72 K, Crystal	270.5
210 K, Crystal	272.2
210 K, Liquid	361.4
210.22 K, Liquid	361.4
211.76 K, Crystal	274.3
213.13 K, Liquid	363.4
214.78 K, Crystal	277.7
217.77 K, Crystal	280.9
220 K, Crystal	283.4
220 K, Liquid	366.1
220.73 K, Crystal	284.4
223.67 K, Crystal	287.4
226.59 K, Crystal	290.7
229.55 K, Crystal	293.6
230 K, Crystal	294.2
230 K, Liquid	370.9
232.58 K, Crystal	297.2
235.59 K, Crystal	300.4
238.56 K, Crystal	303.6
238.61 K, Liquid	375.5
240 K, Crystal	305.2
240 K, Liquid	376
240.98 K, Liquid	376.4
241.58 K, Crystal	307.1
243.49 K, Liquid	377.7
244.65 K, Crystal	310.8
246 K, Liquid	379.1
247.69 K, Crystal	313.5
248.49 K, Liquid	379.9
250 K, Crystal	316.7
250 K, Liquid	381.1
250.71 K, Crystal	316.9
250.97 K, Liquid	381.9
253.43 K, Liquid	382.8
253.7 K, Crystal	320.9
256.03 K, Liquid	384.1
256.67 K, Crystal	323.9
258.86 K, Liquid	386
259.68 K, Crystal	327.4
260 K, Crystal	328.2
260 K, Liquid	386.5
261.82 K, Liquid	387.4
262.73 K, Crystal	331.8
264.77 K, Liquid	388.5
265.76 K, Crystal	335.3
267.7 K, Liquid	390.6
268.75 K, Crystal	342
270 K, Crystal	339.6
270 K, Liquid	392.1
270.75 K, Liquid	392.9
273.92 K, Liquid	394.4
277.07 K, Liquid	396.2
279.27 K, Liquid	397.3
280 K, Crystal	351
280 K, Liquid	397.8
280.22 K, Liquid	397.8
282.28 K, Liquid	399.3
283.51 K, Crystal	355.1
283.51 K, Liquid	399.8
285.27 K, Liquid	401.1
288.25 K, Liquid	402.9
290 K, Liquid	403.8
290.53 K, Liquid	404.3
291.29 K, Liquid	404.5
293.21 K, Liquid	406.2
294.38 K, Liquid	406.7
296.25 K, Liquid	407.3
297.45 K, Liquid	409
298.15 K, Liquid	408.7
299.28 K, Liquid	409.7
300 K, Liquid	409.8
300.51 K, Liquid	409.8
302.31 K, Liquid	411.6
303.56 K, Liquid	411.8
305.32 K, Liquid	412.9
306.66 K, Liquid	414
308.31 K, Liquid	414.6
309.81 K, Liquid	416
310 K, Liquid	415.9
311.31 K, Liquid	416.3
320 K, Liquid	422.3
340 K, Liquid	434.7
360 K, Liquid	446.2
380 K, Liquid	457
400 K, Liquid	466.9
420 K, Liquid	476
440 K, Liquid	484.3
460 K, Liquid	491.8
480 K, Liquid	498.5
500 K, Liquid	504.4
520 K, Liquid	509.5
540 K, Liquid	513.8
550 K, Liquid	515.6
